Experimental data as given in US20220225597A1, “MOUSE MODEL FOR ASSESSING TOXICITIES ASSOCIATED WITH IMMUNOTHERAPIES” (Juno Therapeutics, Inc., priority 2017, published 2022).

Experiments:
[1] = test system: BALB/c mice; format: in vivo, mouse
Procedure: (§1) A single dose of either 100 mg/kg or 250 mg/kg cyclophosphamide (CPA) was injected into naïve BALB/c mice (tumor-free) by intraperitoneal (i.p.) injection. Twenty-four hours later, about 5×10^6 mouse CAR-expressing T cells or mock (control) cells, generated as described in Example 1, were transferred into mice by intravenous injection into the lateral tail vein. As a control, mice were injected with CPA alone or were left untreated. Table E1 sets forth the treatment groups.
Blood samples were collected from treated mice at days 3, 10, 17, 31 and, in some mice at day 43, following cell infusion. The pharmacokinetics (PK) in the blood of administered cells was assessed by detection of the surrogate marker Thy 1.1. The number of circulating B cells, T cells and CD11b+ cells in the blood at the time points following treatment also was assessed.

[2] = test system: BALB/c mice; format: in vivo, mouse; remark: listed apart in the source
Procedure: Various parameters relating to toxicity were assessed in BALB/c mice produced to develop B cell aplasia following administration of an immunotherapy involving anti-CD19 CAR T cells substantially as described in Example 2.
At 24, 48, and 72 hours after infusion with cell compositions, the three healthiest mice from each group were anesthetized, transcardially perfused with phosphate buffered saline (PBS) to flush brain blood vessels, and sacrificed. Blood and tissue samples (spleen, kidney, liver and brain) were collected for analysis of immune cell populations, gene expression, and blood chemistry. The blood and tissue samples were either processed for flow cytometry or were snap-frozen for RNA sequencing (RNA-Seq) analysis. For flow cytometry, tissue samples were digested and cell suspensions were layered over a density gradient to enrich immune cell populations.

[3] = test system: A20 cells; assay: Tumor burden by histology; format: in vivo, mouse; conditions: mice having received A20 cells i.v.
Procedure: To examine the effects of tumor burden on the toxicity following B cell aplasia in mice, BALB/c mice were injected with CD19-expressing A20 cells prior to treatment with CPA and mouse anti-CD19 CAR−T cells. A20 cells are a cell line of B lymphocytes derived from a spontaneous reticulum cell neoplasm in a BALB/cAnN mouse. As the cell line was originally derived from cells of an individual of a BALB/c mouse substrain, the cells are syngenic to the BALB/c mice and can be administered into an immunocompetent BALB/c mouse without triggering an immune response.
BALB/c mice were injected intravenously with A20 cells. […] Table E3 sets forth the treatment groups.
Tumor burden also was assessed by histology in treated mice.

[4] = test system: BALB/c mice; assay: Serum chemistry profiles; conditions: various time points following cell treatment
Procedure: The serum was stored at −20° C. prior to analysis for complete serum chemistry panels, including for levels of serum glucose, albumin, albumin to globulin (A/G) ratio, globulin, total protein, calcium, phosphorus, ALT, AST, and BUN enzymes.

[5] = test system: BALB/c mice; assay: Survival in mouse model of toxicity (CPA, then muCAR-T or mock cells); format: in vivo; conditions: 250 mg/kg CPA alone i.p.; tumor-free BALB/c mice
Procedure: as §1

`O=P1(N(CCCl)CCCl)NCCCO1` (centres unmarked) [CPA, cyclophosphamide] was tested, and the “levels of circulating B cells” value ([1]; 250 mg/kg CPA than 100 mg/kg CPA) was “reduced levels of circulating B cells to a greater degree”, the “circulating B cells, T cells, and CD11b+ cells” value ([1]; 100 or 250 mg/kg CPA i.p., blood) was “depleted” and the “circulating CD45+ live cells, CD11b+ cells, endogenous T cells and endogenous B cells in blood” value ([2]; 250 mg/kg CPA pre-conditioning, continued to drop at least for 72 hours) was “depletion”. For the same compound, the “immune cells in brain tissue, including endogenous T cells and endogenous B cells” value ([2]; CPA pre-conditioning) was “depleted”, the “immune cells (endogenous T cells, B cells, CD45+ cells, CD11b+ cells) in spleen, kidney and liver” value ([2]; treatment with CPA) was “depletion” and the “A20 tumor masses in liver and spleen tissues” value [3] was “observed in some”. The “serum Albumin to Globulin ratio (A/G ratio)” value [4] was “significantly reduced” and the Survival [5] was 100%.
